This note sets out measurements from patent publication US20230303613A1, “3′3′ CYCLIC DINUCLEOTIDES WITH AN ALKENYLENE” (Institute of Organic Chemistry and Biochemistry AS CR, v.v.i, priority 2020, published 2023).

The structures appear in SMILES notation. Where two headings read alike, the source gives them in different places.

Assay [1] has as its target T1, WT STING (Homo sapiens, UniProt Q86WV6, H232R). Kind of assay: Digitonin assay using 293T wtSTING-FL reporter cells. In kind it is cell-based. The note with it: 293T wtSTING-FL cells; 30 minutes in Digitonin buffer, then 5 hours; ISRE firefly luciferase reporter. The source says:
(§1) Two complementary oligonucleotides of the sequence […] […] […] […] […] The oligonucleotides were mixed in equal molar amounts, hybridized, and cleaved by restriction endonucleases HindIII (cat. #. R0104S, NEB, Ipswich, USA) and BglII (cat. # R0144S, NEB, Ipswich, USA). Ultimately, they were ligated into plasmid pGL4.27 (cat. # E6651, Promega, Madison, USA) linearized with the same enzymes. As result the sequence with four ISRE sites was placed upstream of the minimum promoter of firefly luciferase reporter gene.
(§2) After 5 minutes incubation at room temperature (RT), 250 µL of the mixture was added dropwise to the cells in one well. Cells were incubated 36 hours at 37° C. with 5% CO2, and then detached with 0.05% Trypsin and 0.22 g/L EDTA (both cat. # L0941, Biowest, Riverside, USA).
(§3) Transfected cells were seeded onto poly-D-lysine coated six well plates at density 50,000 cells per 1 cm^2 in DMEM medium with high glucose containing 10% heat inactivated FBS, 30 µg/mL blasticidin (cat. # ant-bl-05, InvivoGen, San Diego, USA), 0.06 mg/ml Penicillin G and 0.1 mg/ml Streptomycin Sulfate (both cat. #. L0018, Biowest, Riverside, USA). The medium was replenished every 3 - 4 days until visible colonies of cells resistant to blasticidin were formed.
(§4) Blasticidin resistant cells stably expressing WT STING were further transfected with […] plasmid following the same procedure as described above. […] Homogeneous culture of stably double transfected cells was prepared by limiting dilution of cells in 96 well plates and wells with cells were selected that originated from a single cell.
The medium was removed next day and three fold serial dilutions of compounds in Digitonin buffer containing 50 mmol.l^-1 HEPES (cat. # H3375, Sigma Aldrich, Czech Republic) pH 7.0, 100 mmol.1^-1 KCl, 3 mmol.l^-1 MgCl2, 0.1 mmol.l^-1 DTT (cat. # D0632, Sigma Aldrich, Czech Republic), 85 mmol.1^-1 Sucrose (cat. # S7903, Sigma Aldrich, Czech Republic), 0.2% BSA (cat. # A2153, Sigma Aldrich, Czech Republic), 1 mmol.l^-1 ATP (cat. # A1852, Sigma Aldrich, Czech Republic), 0.1 mmol.1^-1 GTP (cat. # G8877, Sigma Aldrich, Czech Republic), and 10 µg/mL Digitonin A (cat. # D141, Sigma Aldrich, Czech Republic) were added to the cells. The buffer was removed after 30 minutes incubation at 37° C. with 5% CO2, the cells were washed once with 100 µl of cultivation medium, and 100 µl of medium was added to each well. The plates with cells were incubated for 5 hours at 37° C. with 5% CO2, 50µl of the medium was removed and 30 µl of ONE-Glo^Tm Luciferase Assay System reagent (cat. # E6120, Promega, Madison, USA) was added to each well. Luminescence was read on Synergy H1 (Biotek, Winooski, USA).
Target sequence in this assay (Q86WV6 whole entry H232R): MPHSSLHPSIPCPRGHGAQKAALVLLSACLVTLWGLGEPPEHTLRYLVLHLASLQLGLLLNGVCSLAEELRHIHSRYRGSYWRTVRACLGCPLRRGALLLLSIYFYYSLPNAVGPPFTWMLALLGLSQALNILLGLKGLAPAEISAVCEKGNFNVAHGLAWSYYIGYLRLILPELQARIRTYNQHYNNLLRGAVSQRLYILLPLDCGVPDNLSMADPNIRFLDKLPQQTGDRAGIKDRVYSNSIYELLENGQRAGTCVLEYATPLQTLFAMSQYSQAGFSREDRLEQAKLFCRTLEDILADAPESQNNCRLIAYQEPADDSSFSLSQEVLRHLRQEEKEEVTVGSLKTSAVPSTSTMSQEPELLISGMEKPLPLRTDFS
(Reporter assays use an easily measured gene product as a stand-in for the process of interest.)

The target of assay [2] is T1, WT STING. Kind of assay: 293T WT STING standard reporter assay. The following applies: 293T wtSTING-FL cells; 7 hours with compound, no digitonin; ISRE firefly luciferase reporter. Type of assay: cell-based.
Source text: as §1, §2, §3, §4
Target sequence in this assay (Q86WV6 whole entry H232R): as above
The medium was removed next day and three-fold serial dilutions of compounds in 100 µl medium were added to the cells. The plates with cells were incubated for 7 hours at 37° C. with 5% CO2. After 50 µl of the medium was removed, 30 µl of ONE-Glo^Tm Luciferase Assay System reagent (cat. # E6120, Promega, Madison, USA) was added to each well and luminescence was read on Synergy H1 (Biotek, Winooski, USA).

Assay [3] deals with peripheral blood mononuclear cell (PBMC). As to the kind of experiment: Peripheral blood mononuclear cell assay. Type of assay: cell-based. The following applies: PBMC, 1h with compound, washed, 15 hour incubation. How it is done: Selected compounds were tested in an in vitro peripheral blood mononuclear cell (PBMC) assay. Freshly isolated PBMCs were seeded into U-shaped shaped 96-well plates at desity 500,000 cells per well in 50 µl of RPMI 1640 medium supplemented with 10% heat inactivated FBS. Serially dilluted tested compounds were added to wells in 50 µl of cultivation medium and cell were incubated with compounds for 1h at 37° C. with 5% CO2. Plates with cells were then spun 500 g for 5 minutes and medium was removed. Cells were washed twice with the cell culture medium by the use of centrifugation and gently resuspended in 100 µl medium without compounds. After 15 hour incubation at 37° C. with 5% CO2, the cell culture medium was collected and the levels of interferon-alpha (INF-α), interferon-gamma (INF-γ) and tumor necrosis factor-alpha (TNF-α) were determined with ProcartaPlex Assays (ThermoFisher, Waltham, USA) and MAGPIX System (Merck KGaA, Darmstadt, Germany).

A further assay has as its target T2, AQ STING (G230A-R293Q) (Homo sapiens, UniProt Q86WV6, G230A/H232R/R293Q).
T2 construct: 8xHis (N, cleaved yes); SUMO (N, cleaved yes); made in house; host or cells: E. coli Rosetta-gami B (DE3)
Kind of assay: Differential Scanning Fluorimetry with AQ STING. In kind it is binding. The note with it: thermal shift vs apoprotein; 150 µM CDN; truncated human AQ STING 0.1 mg/ml; read-out: DSF ΔTm AQ STING. The text has this:
(§5) Purified PCR products were cleaved with restriction enzymes BamHI (cat. # R0136S, NEB, Ipswich, USA) and NotI (cat. # R0189S, NEB, Ipswich, USA) and cloned into the pSUMO vector linearized with the identical enzymes.
(§6) Bacterial pellets were re-suspended in ice-cold lysis buffer containing 50 mmol.1^-1 TrisCl (cat. # T1503, Sigma Aldrich, Czech Republic) pH 8.0, 300 mmol.1^-1 NaCl, 3 mmol.1^-1 β-mercaptoethanol (cat. # M6250, Sigma Aldrich, Czech Republic), 10% glycerol (cat. # G5516, Sigma Aldrich, Czech Republic) and 20 mmol.1^-1 imidazole (cat. # I5513, Sigma Aldrich, Czech Republic) using Dounce homogenizer. DNase I (cat. # D5025, Sigma Aldrich, Czech Republic) and RNase A (cat. # R6513, Sigma Aldrich, Czech Republic) were added (final concentration 50 µg/ml) together with MgCl2 (final concentration 5 mmol.l^-1) to the homogenate and bacteria were lysed using French Press G-M™ High-Pressure Cell Press Homogenizer (1500 psi, 3 cycles). […] The resin was poured into a chromatography column, washed with 50 ml buffer A (50 mmol.1^-1 TrisCl (pH 8.0), 800 mmol.1^-1 NaCl, 3 mmol.1^-1 β-mercaptol; 10% glycerol; 20 mmol.1^-1 imidazole) and 8-His-SUMO tagged STING proteins were eluted with 15 ml buffer A containing 300 mmol.1^-1 imidazole. […] Proteins were concentrated with Amicon® Ultra-15 10 K device (cat. # UFC901008, Merck Millipore, Billerica, USA) and flash frozen in liquid N2.
(§7) 20 µL solutions of the reaction mixtures were pipetted in triplicates into 96 well optical reaction plates and thermal denaturation of samples were performed on real time PCR cycler (LightCycler® 480 Instrument II - Roche, Basel, Switzerland). The first derivative of the thermal denaturation curves was performed to calculate denaturing temperatures of STING - CDN complexes and STING apoproteins. The thermal shift for each CDN was calculated by subtracting the average denaturing temperature of STING apoprotein from the average denaturing temperature of STING CDN complex.

The target of assay [4] is T1, WT STING. Kind of assay: Differential Scanning Fluorimetry with WT STING. In kind it is binding. Also noted: 8xHis (N, cleaved yes); SUMO (N, cleaved yes); made in house; host or cells: E. coli Rosetta-gami B (DE3). The following applies: thermal shift vs apoprotein; 150 µM CDN; truncated human WT STING 0.1 mg/ml; read-out: DSF ΔTm WT STING.
Source text: as §5, §6, §7
Target sequence in this assay (Q86WV6 140-343 H232R): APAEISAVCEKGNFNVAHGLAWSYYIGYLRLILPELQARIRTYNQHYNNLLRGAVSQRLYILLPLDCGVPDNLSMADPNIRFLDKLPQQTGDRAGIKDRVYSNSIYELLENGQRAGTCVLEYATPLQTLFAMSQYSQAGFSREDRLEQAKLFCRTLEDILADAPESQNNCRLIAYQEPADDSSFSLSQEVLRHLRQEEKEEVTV
Background: In DSF a fluorescence change marks the thermal transition of the protein.

Where [5] appears, read: IFN-α level in medium, read-out: PBMC EC50 IFN-α.
[6] abbreviates: IFN-γ level in medium, read-out: PBMC EC50 IFN-γ.
The mark [7] stands for this setting: TNF-α level in medium, read-out: PBMC EC50 TNF-α.

T2 sequence (Q86WV6 140-343 G230A/H232R/R293Q): as the sequence (Q86WV6 140-343 H232R) above, with G91A, R154Q counted along it

A word on the EC50: it is the concentration that produces a half-maximal response. As for `Nc1ncnc2c1ncn2[C@@H]1O[C@@H]2/C=C/P(=O)(O)O[C@H]3C[C@H](n4cnc5c(N)ncnc54)O[C@@H]3COP(=O)(O)O[C@H]2[C@H]1F` [Compound 60, (1R,6R,8R,10S,13E,15R,17R,18R)-8,17-bis(6-amino-9H-purin-9-yl)-18-fluoro-3,12-dihydroxy-2,4,7,11,16-pentaoxa-3λ^5,12λ^5-diphosphatricyclo[13.3.0.0^6,^10]octadec-13-ene-3,12-dione], the EC50 on WT STING [1] was 280 nM; at WT STING [2] it was 71800 nM; in assay [3] (setting [5]), greater than 500000 nM; in assay [3] (setting [6]) it was 164000 nM; in assay [3] (setting [7]), 100000 nM.

The ΔTm is the change in melting temperature against a reference sample. As for `Nc1nc2c(ncn2[C@@H]2O[C@@H]3/C=C/P(=O)(O)O[C@H]4[C@@H](F)[C@H](n5cnc6c(N)ncnc65)O[C@@H]4COP(=O)(O)O[C@H]3[C@H]2F)c(=O)[nH]1` [Compound 54, (1R,6R,8R,9R,10R,13E,15R,17R,18R)-17-(2-amino-6-oxo-6,9-dihydro-1H-purin-9-yl)-8-(6-amino-9H-purin-9-yl)-9,18-difluoro-3,12-dihydroxy-2,4,7,11,16-pentaoxa-3λ^5,12λ^5-diphosphatricycl [13.3.0.0^6,^10]octadec-13-ene-3,12-dione], the ΔTm at 150 µM turned out to be 15 °C on AQ STING (G230A-R293Q) and 9.2 °C on WT STING [4]. Moreover, on WT STING [1], the EC50 amounted to 20 nM.

On to `Nc1nc2c(ncn2[C@@H]2O[C@@H]3/C=C/P(=O)(O)O[C@H]4C[C@H](n5cnc6c(N)ncnc65)O[C@@H]4COP(=O)(O)O[C@H]3[C@H]2O)c(=O)[nH]1` [Compound 55, (1S,6R,8R,10S,13E,15R,17R,18R)-17-(2-amino-6-oxo-6,9-dihydro-1H-purin-9-yl)-8-(6-amino-9H-purin-9-yl)-3,12,18-trihydroxy-2,4,7,11,16-pentaoxa-3λ^5,12λ^5-diphosphatricyclo[13.3.0.0^6,^10]octadec-13-ene-3,12-dione], for which the ΔTm at 150 µM on AQ STING (G230A-R293Q) came out at 8.6 °C; at WT STING [4], 1.9 °C. Further, the EC50 on WT STING [1] amounted to 780 nM.

Consider `Nc1ncnc2c1ncn2[C@@H]1O[C@@H]2COP(=O)(O)O[C@H]3C[C@H](n4cnc5c(N)ncnc54)O[C@@H]3/C=C/P(=O)(O)O[C@H]2[C@H]1F` [Compound 61, (1S,6R,8R,9R,10R,13E,15R,17R)-8,17-bis(6-amino-9H-purin-9-yl)-9-fluoro-3,12-dihydroxy-2,4,7,11,16-pentaoxa-3λ^5,12λ^5-diphosphatricyclo[13.3.0.0^6,10]octadec-13-ene-3,12-dione], for which the EC50 on WT STING [1] is 750 nM; on WT STING [2] it was greater than 200000 nM.

Regarding `CSc1ncnc2c1ncn2[C@@H]1O[C@@H]2COP(=O)(O)O[C@H]3[C@@H](O)[C@H](n4cnc5c(=O)[nH]c(N)nc54)O[C@@H]3/C=C\P(=O)(O)O[C@H]2[C@H]1O` (stereo in doubt) [Compound 70, (1S,6R,8R,9R,10S,15R,17R,18R)-17-(2-amino-6-oxo-6,9-dihydro-1H-purin-9-yl)-3,9,12,18-tetrahydroxy-8-[6-(methylsulfanyl)-9H-purin-9-yl]-2,4,7,1 1,16-pentaoxa-3λ^5,12λ^5-diphosphatricyclo[13.3.0.0^6,^10]octadec-13-ene-3,12-dione], the ΔTm at 150 µM worked out at 1.1 °C on AQ STING (G230A-R293Q) and 0.5 °C at WT STING [4]. Further, on WT STING [1], the EC50 worked out at 16100 nM.

Turning to `Nc1nc2c(ncn2[C@@H]2O[C@@H]3COP(=O)(O)O[C@H]4C[C@H](n5cnc6c(N)ncnc65)O[C@@H]4/C=C/P(=O)(O)O[C@H]3[C@H]2F)c(=O)[nH]1` [Compound 59, (1S,6R,8R,9R,10R,13E,15R,17R)-8-(2-amino-6-oxo-6,9-dihydro-1H-purin-9-yl)-17-(6-amino-9H-purin-9-yl)-9-fluoro-3,12-dihydroxy-2,4,7,11,16-pentaoxa-3λ^5, 12λ^5-diphosphatricyclo[13.3.0.0^6,^10]octadec-13-ene-3,12-dione], at WT STING [1], the EC50 was 700 nM.

For `CC(C)(C)C(=O)OCOP1(=O)/C=C/[C@H]2O[C@@H](n3cnc4c(N)ncnc43)[C@H](F)[C@@H]2OP(=O)(OCOC(=O)C(C)(C)C)OC[C@H]2O[C@@H](n3cnc4c(N)ncnc43)[C@H](F)[C@@H]2O1` (single isomer, unassigned) [Compound 80c], the EC50 on WT STING [2] turned out to be 12 nM; in assay [3] (setting [5]), 100 nM; in assay [3] (setting [6]), 180 nM; in assay [3] (setting [7]), 100 nM.
